For one data set, the system named is CCR2 mRNA. The data set is described as follows: Inhibition of CCR2 mRNA level in MDSCs. It is filed as cell-based. As to conditions: Mus musculus, 2 h, read-out: Suppression Rate (inhibition of CCR2 mRNA levels). On the procedure: Under sterile conditions, the tibia was removed, both ends of the bone were cut, and bone marrow was repeatedly flushed into a 15 mL centrifuge tube using a 1 mL syringe filled with culture medium. Centrifuge at 1600 rpm for 5 min to collect bone marrow cells. […] Count cells and adjust density to 1×10^6 cells/mL in complete medium. Seed cells uniformly into 6-well plates at 2 mL per well. […] After incubation, collect cells into centrifuge tubes, centrifuge at 1600 rpm for 5 min, wash once with 1×PBS, and add 500 μL RNA extraction reagent to each tube. After centrifugation to obtain the pellet, add 20 μL DEPC-treated water to each tube to dissolve the pellet. Determine RNA concentration and reverse transcribe to cDNA. Add the cDNA, primers, and […] to a 96-well plate. Centrifuge at 4000 rpm for 5 min, then place in a PCR instrument for detection.

In data set [1] the target is farnesyltransferase (FTase). As to conditions: cited from earlier work.
In another data set the test system is heart failure. Particulars: human, in vivo; cited from earlier work.
The subject of data set [2] is IgE and inflammatory markers of AD mice. Briefly: MC903-induced atopic dermatitis, oral administration: serum IgE and ear mRNA of inflammatory markers. The data set is classed as in vivo, mouse. On the set-up: scale not given here. On the procedure:
Except for the Normal group, all other groups underwent AD modeling: 20 μL of MC903 solution (also known as calcipotriol, purchased from Shanghai Yuanye Biotechnology Co., Ltd., used for inducing atopic models) was applied to each mouse's ears once daily for 14 consecutive days to induce the atopic dermatitis model. […] Measure ear thickness changes every 2 days using an electronic caliper before modeling and after treatment initiation.

The nature of data set [3]: Safety evaluation, mouse activity status (30 days oral). The data set is classed as in vivo, C57BL/6 mice. As to conditions: 500, 1000 mg/kg oral. From the text:
The Normal group received an equal volume of solvent (saline).

For data set [4], the system named is inflammatory factors Il1b, Il6 and Hscrp in serum. The data set is described as follows: HFD-induced atherosclerosis, serum Il1b, Il6 and Hscrp. It is filed as in vivo, APOE−/− mice. Particulars: for Serum Hscrp / Serum Il1b / Serum Il6: 8 weeks. Also noted: Serum Il1b / Serum Il6 / Serum Hscrp: unit not given here. As to the method: Experimental animals: C57BL and APOE^−/− mice, male, 8 weeks old, purchased from GemPharmatech LLC. Production license number: SCXK(Su)2023-0009. […] They were acclimated for 7 days before use in experiments.
Normal group (C57BL), model group (HFD/APOE^−/−), positive control drug VTX3232 (10 mg/kg) group, compound 103 (0.3, 1, 3, 10 and 30 mg/kg) group, with 6 mice per group. Oral administration was performed continuously for 8 weeks.
Allow blood to stand at room temperature for 2 hours, then centrifuge at 3000 rpm for 20 minutes. Aspirate the serum, aliquot it, and store at −70° C. for future use. After blood collection, euthanize mice by cervical dislocation. Open the abdominal cavity, remove heart and aorta. […] Store remaining tissues at −80° C. for future use.
Serum Total Il1, Il6 and Hscrp Assay: For each sample, 10 μL of serum was used for […]. Samples were added sequentially strictly according to the kit instructions, incubated at 37° C., and measured for absorbance values using an enzyme-linked immunosorbent assay (ELISA) reader. The concentration levels of each indicator were calculated based on the standard curve.

Consider 3 molecules from patent US20260315434A1, “USE OF GUAIACOL SESQUITERPENE LACTONE DERIVATIVES” (NANJING UNIVERSITY OF CHINESE MEDICINE, priority 2023, published 2026).

With `C=C1C(=O)O[C@@H]2[C@H]3C(C)=CC[C@@]34O[C@@]4(C)CC[C@@H]12` [Arg, Arglabin, reference compound], in the data set on CCR2 mRNA, the inhibition at 1 µM was 22.3% and the inhibition at 10 µM stood at 69.7%. The “IC50 for inhibiting H-Ras protein farnesylation” value in data set [1] was “only at the micromolar level”. For the same molecule, the cardiac inflammation result in the data set with heart failure is given as “inhibited”.
In the case of `CN(C)C[C@@H]1C(=O)O[C@H]2[C@H]1CC[C@@]1(C)C[C@]13CC[C@@](C)(O)[C@H]23` [Compound 20], in data set [2] (0.1 mg/kg oral), the “I14 mRNA expression, ear” value is recorded as 2.77 ± 0.16; the “I113 mRNA expression, ear” value is 2.04 ± 0.20; the “I131 mRNA expression, ear” value amounted to 2.64 ± 0.22; the “TSLP mRNA expression, ear” value came out at 3.38 ± 0.51. Also, in data set [2] (0.1 mg/kg oral), the “Tnf mRNA expression, ear” value is 4.04 ± 0.50. Further, in data set [2] (1 mg/kg oral), the “I14 mRNA expression, ear” value is on record as 2.65 ± 0.22; the “I113 mRNA expression, ear” value is given as 1.82 ± 0.21; the “TSLP mRNA expression, ear” value amounted to 2.36 ± 0.32; the “Tnf mRNA expression, ear” value turned out to be 2.63 ± 0.55. Moreover, in data set [2] (10 mg/kg oral), the “I14 mRNA expression, ear” value worked out at 2.09 ± 0.26; the “I113 mRNA expression, ear” value was 1.66 ± 0.30; the “I131 mRNA expression, ear” value worked out at 1.68 ± 0.13; the “TSLP mRNA expression, ear” value worked out at 1.33 ± 0.13. Moreover, in data set [2] (10 mg/kg oral), the “Tnf mRNA expression, ear” value is 1.22 ± 0.18. Moreover, in data set [3], the “activity status after each administration” value was “relatively reduced activity and lethargy”; the “time to recovery to normal activity” value was in the range of 1 to 2 h. The “coat luster, behavioral activity, or mental state vs. Normal group” value in data set [3] (30 days) is given as “no significant differences”.
Regarding `CC1=C2CC[C@@](C)(OC(=O)N3CCCC3)[C@@H]2[C@H]2OC(=O)[C@@H](CN3CCCC3)[C@@H]2CC1` [Compound 103], the “Serum Hscrp” value in data set [4] (0.3 mg/kg, oral) is recorded as 9.67 ± 1.25; in data set [4] (1 mg/kg, oral), 7.25 ± 0.77; in data set [4] (3 mg/kg, oral), 6.67 ± 0.46; in data set [4] (10 mg/kg, oral) it was 5.80 ± 0.41; in data set [4] (30 mg/kg oral), 4.88 ± 0.63. Further, the “Serum Il1b” value in data set [4] (0.3 mg/kg, oral) was determined as 277.35 ± 176.70; in data set [4] (1 mg/kg, oral) it was 255.38 ± 185.47; in data set [4] (3 mg/kg, oral), 173.42 ± 132.43; in data set [4] (10 mg/kg, oral), 77.91 ± 41.08; in data set [4] (30 mg/kg oral) it was 62.93 ± 23.79. In addition, the “Serum Il6” value in data set [4] (0.3 mg/kg, oral) amounted to 95.42 ± 26.76; in data set [4] (1 mg/kg, oral) it was 90.32 ± 8.01; in data set [4] (3 mg/kg, oral), 82.19 ± 4.83; in data set [4] (10 mg/kg, oral), 50.08 ± 9.76; in data set [4] (30 mg/kg oral), 34.82 ± 20.80. The “serum Il1b, Il6 and Hscrp levels compared with the model group” value in data set [4] (0.3, 1, 3, 10, 30 mg/kg oral) was “markedly lower”.
